Where a name gives a salt, the structure may show the parent alone. Read-outs that look alike come from different tables or passages of the source.
Tests used:
HUVECs = experiment: High-content imaging cytotoxicity in HUVECs, 24 h; format: cell-based, human; details: Homo sapiens, HUVEC, 24 h, HUVECs; for viability at 0.01 µM / activity at 0.01 µM / viability at 0.1 µM / activity at 0.1 µM / viability at 1 µM / activity at 1 µM / viability at 10 µM / activity at 10 µM / viability at 100 µM / activity at 100 µM: 0.00 µM = 100.00; for viability at 0.1 µM / activity at 0.1 µM: 0.10 µM; for minimal effective concentration: top concentration 100.00 µM
In short: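 Read-out: multiwavelength high-content imaging of Hoechst 33342, MitoTracker Orange and calcein AM after 24 h compound exposure of confluent HUVEC monolayers. POD values were set using a one-SD cutoff from vehicle (0.5% DMSO) means; with no concentration–response, 100μM was assigned as no observable adverse effect level.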

[1] = tested on: iCell cardiomyocytes (human iPSC-derived cardiomyocytes); experiment: High-content imaging of cytotoxicity and mitochondrial integrity in iPSC-CMs; format: cell-based; details: Homo sapiens; for viability at 0.01 µM / activity at 0.01 µM / viability at 0.1 µM / activity at 0.1 µM / viability at 1 µM / activity at 1 µM / viability at 10 µM / activity at 10 µM / viability at 100 µM / activity at 100 µM: Cardiomyocyte, 0.00 µM = 100.00; for viability at 0.1 µM / activity at 0.1 µM: 0.10 µM; for minimal effective concentration: iPSC-CM
In short: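 Cardiomyocytes grown on gelatinized 384-well plates received fresh medium on the experiment day and were then exposed to chemicals at 0.01–100μM. Nuclei and mitochondria were labeled with Hoechst 33342 and MitoTracker™ Orange, then fixed, and imaged on an ImageXpress® Micro Confocal system. Four-parameter logistic concentration–response fits in R, with a one-standard-deviation vehicle cutoff, gave point-of-departure values.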

[2] = 24 hr, read-out: huvec.cyto.24hr
[3] = 24 hr, read-out: huvec.mito.24hr
[4] = 24 hr, read-out: huvec.mitoint.24hr
[5] = 24 hr, read-out: huvec.nma.24hr
[6] = 24 hrs, read-out: huvec.tc.24hrs

O=S(=O)(O)Oc1cc(-c2ccccc2)ccc1Cl [3-yl PCB 3 sulfate] gave a viability at 0.01 µM (HUVECs; [2]) of 78.2%, an activity at 0.01 µM (HUVECs; [3]) of 77.8% and an activity at 0.01 µM (HUVECs; [4]) of 93.6%. The activity at 0.01 µM (HUVECs; [5]) was 96.6%, the viability at 0.1 µM (HUVECs; [2]) was 95.5% and the activity at 0.1 µM (HUVECs; [3]) was 95.5%. It also gave an activity at 0.1 µM (HUVECs; [4]) of 110%, an activity at 0.1 µM (HUVECs; [5]) of 102% and a viability at 1 µM (HUVECs; [2]) of 95.1%. For the same compound, the activity at 1 µM (HUVECs; [3]) was 94%, the activity at 1 µM (HUVECs; [4]) was 93.8% and the activity at 1 µM (HUVECs; [5]) was 95.5%. The viability at 10 µM (HUVECs; [2]) was 91.1%, the activity at 10 µM (HUVECs; [3]) was 89.7% and the activity at 10 µM (HUVECs; [4]) was 80.7%. It also gave an activity at 10 µM (HUVECs; [5]) of 93.3%, a viability at 100 µM (HUVECs; [2]) of 98.8% and an activity at 100 µM (HUVECs; [3]) of 97.9%. It also gave an activity at 100 µM (HUVECs; [4]) of 105%, an activity at 100 µM (HUVECs; [5]) of 96% and a minimal effective concentration (HUVECs; 24 hr, read-out: huvec.cyto.24hr POD) of 100 µM. It also gave a minimal effective concentration (HUVECs; 24 hr, read-out: huvec.mito.24hr POD) of 100 µM, a minimal effective concentration (HUVECs; 24 hr, read-out: huvec.mitoint.24hr POD) of 100 µM and a minimal effective concentration (HUVECs; 24 hr, read-out: huvec.nma.24hr POD) of 100 µM. For the same compound, the viability at 0.01 µM (HUVECs; [6]) was 78.4%, the viability at 0.1 µM (HUVECs; [6]) was 95.5% and the viability at 1 µM (HUVECs; [6]) was 95.1%. For the same compound, the viability at 10 µM (HUVECs; [6]) was 91.1%, the viability at 100 µM (HUVECs; [6]) was 98.8% and the minimal effective concentration (HUVECs; 24 hrs, read-out: huvec.tc.24hrs POD) was 100 µM. For the same compound, the viability at 0.01 µM ([1]; 1.5 h, read-out: cm.cam.90min) was 100%, the activity at 0.01 µM ([1]; 1.5 h, read-out: cm.mii.90min) was 110% and the activity at 0.01 µM ([1]; 1.5 h, read-out: cm.mito.90min) was 100%. It also gave a viability at 0.01 µM ([1]; 1.5 h, read-out: cm.tc.90min) of 101%, a viability at 0.1 µM ([1]; 1.5 h, read-out: cm.cam.90min) of 97.4% and an activity at 0.1 µM ([1]; 1.5 h, read-out: cm.mii.90min) of 109%. The activity at 0.1 µM ([1]; 1.5 h, read-out: cm.mito.90min) was 97.4%, the viability at 0.1 µM ([1]; 1.5 h, read-out: cm.tc.90min) was 97.6% and the viability at 1 µM ([1]; 1.5 h, read-out: cm.cam.90min) was 104%. For the same compound, the activity at 1 µM ([1]; 1.5 h, read-out: cm.mii.90min) was 106%, the activity at 1 µM ([1]; 1.5 h, read-out: cm.mito.90min) was 104% and the viability at 1 µM ([1]; 1.5 h, read-out: cm.tc.90min) was 104%. The viability at 10 µM ([1]; 1.5 h, read-out: cm.cam.90min) was 106%, the activity at 10 µM ([1]; 1.5 h, read-out: cm.mii.90min) was 98.4% and the activity at 10 µM ([1]; 1.5 h, read-out: cm.mito.90min) was 106%. For the same compound, the viability at 10 µM ([1]; 1.5 h, read-out: cm.tc.90min) was 106%, the viability at 100 µM ([1]; 1.5 h, read-out: cm.cam.90min) was 104% and the activity at 100 µM ([1]; 1.5 h, read-out: cm.mii.90min) was 108%. It also gave an activity at 100 µM ([1]; 1.5 h, read-out: cm.mito.90min) of 104%, a viability at 100 µM ([1]; 1.5 h, read-out: cm.tc.90min) of 104% and a viability at 0.01 µM ([1]; 24 h, read-out: cm.cam.24hrs) of 87.7%. The activity at 0.01 µM ([1]; 24 h, read-out: cm.mii.24hrs) was 113%, the activity at 0.01 µM ([1]; 24 h, read-out: cm.mito.24hrs) was 86% and the viability at 0.01 µM ([1]; 24 h, read-out: cm.tc.24hrs) was 88.2%. For the same compound, the viability at 0.1 µM ([1]; 24 h, read-out: cm.cam.24hrs) was 99.9%, the activity at 0.1 µM ([1]; 24 h, read-out: cm.mii.24hrs) was 109% and the activity at 0.1 µM ([1]; 24 h, read-out: cm.mito.24hrs) was 99.5%. For the same compound, the viability at 0.1 µM ([1]; 24 h, read-out: cm.tc.24hrs) was 101%, the viability at 1 µM ([1]; 24 h, read-out: cm.cam.24hrs) was 96.5% and the activity at 1 µM ([1]; 24 h, read-out: cm.mii.24hrs) was 102%. The activity at 1 µM ([1]; 24 h, read-out: cm.mito.24hrs) was 93.7%, the viability at 1 µM ([1]; 24 h, read-out: cm.tc.24hrs) was 96.4% and the viability at 10 µM ([1]; 24 h, read-out: cm.cam.24hrs) was 91.9%. The activity at 10 µM ([1]; 24 h, read-out: cm.mii.24hrs) was 89.9%, the activity at 10 µM ([1]; 24 h, read-out: cm.mito.24hrs) was 88.6% and the viability at 10 µM ([1]; 24 h, read-out: cm.tc.24hrs) was 92.3%. For the same compound, the viability at 100 µM ([1]; 24 h, read-out: cm.cam.24hrs) was 96.9%, the activity at 100 µM ([1]; 24 h, read-out: cm.mii.24hrs) was 83.9% and the activity at 100 µM ([1]; 24 h, read-out: cm.mito.24hrs) was 97.6%. The viability at 100 µM ([1]; 24 h, read-out: cm.tc.24hrs) was 97.8%, the minimal effective concentration ([1]; 1.5 h, read-out: cm.cam.90min POD) was 100 µM and the minimal effective concentration ([1]; 1.5 h, read-out: cm.mii.90min POD) was 100 µM. The minimal effective concentration ([1]; 1.5 h, read-out: cm.mito.90min POD) was 100 µM, the minimal effective concentration ([1]; 1.5 h, read-out: cm.tc.90min POD) was 100 µM and the minimal effective concentration ([1]; 24 h, read-out: cm.cam.24hrs POD) was 100 µM. It also gave a minimal effective concentration ([1]; 24 h, read-out: cm.mii.24hrs POD) of 22.8 µM, a minimal effective concentration ([1]; 24 h, read-out: cm.mito.24hrs POD) of 100 µM and a minimal effective concentration ([1]; 24 h, read-out: cm.tc.24hrs POD) of 100 µM.

From paper PMC7377239, “Cardiovascular Effects of Polychlorinated Biphenyls and Their Major Metabolites” (Environmental Health Perspectives, 2020)
